Test results: PMC9274761, “Effects of Structurally Different HDAC Inhibitors against Trypanosoma cruzi, Leishmania, and Schistosoma mansoni” (ACS Infectious Diseases, 2022)
Where “and” joins values, the source holds several entries; their conditions need not be identical. Equal values may be shown once. Read-outs that look alike come from different tables or passages of the source.

Columns and labels:
[1] = test system: newly transformed schistosomula (NTS); test: Phenotypic screening on newly transformed schistosomula (NTS); format: cell-based, Schistosoma mansoni; conditions: for IC50: Schistosoma mansoni, 72 h, read-out: IC50, viability of NTS
S. mansoni adult worms = test: Phenotypic screening on S. mansoni adult worms; format: cell-based, Schistosoma mansoni; conditions: 72 h
[2] = MTT viability assay in RPE cells; format: cell-based, human; conditions: human, retinal pigment epithelial (RPE) cells, read-out: percentage of RPE cell viability, 48 h
[3] = test system: human retinal pigment epithelial (RPE) cells; test: MTT viability assay in RPE cells; format: cell-based; conditions: Homo sapiens, RPE, 48 h, read-out: IC50 in RPE cells (cell viability)
[4] = test system: T. cruzi amastigotes and trypomastigotes; test: T. cruzi infection assay in L929 cells (beta-galactosidase Tulahuen strain); format: cell-based, Trypanosoma cruzi; conditions: for EC50, growth of T. cruzi amastigotes and trypomastigotes / EC50: mean ± SD; for selectivity index (SI), CC50/EC50: L929 CC50 / T. cruzi EC50; for EC50: read-out: EC50, growth of T. cruzi amastigotes and trypomastigotes
[5] = test system: L. donovani axenic amastigotes; test: Resazurin reduction assay, L. donovani axenic amastigotes; format: cell-based; conditions: Leishmania donovani, read-out: percentage of inhibition, L. donovani axenic amastigotes
[6] = test system: L. amazonensis amastigotes in primary mouse macrophages; conditions: 10 μM, 3 days, toxic = toxic for macrophages
in vitro = conditions: mouse
[7] = test system: L. amazonensis promastigotes; test: Resazurin reduction assay, L. amazonensis promastigotes; format: cell-based; conditions: Leishmania amazonensis, read-out: percentage of inhibition, L. amazonensis promastigotes
[8] = test system: L. donovani promastigotes; test: Resazurin reduction assay, L. donovani promastigotes; format: cell-based; conditions: Leishmania donovani, read-out: percentage of inhibition, L. donovani promastigotes
[9] = 40 μM, infected L929 cells, 96 h, toxic = L929 death
[10] = 80 μM, infected L929 cells, 96 h, toxic = L929 death
[11] = 160 μM, infected L929 cells, 96 h, toxic = L929 death
[12] = Trypanosoma cruzi, infected L929 cells, 96 h, read-out: percentage of T. cruzi growth inhibition
[13] = Trypanosoma cruzi, 2.5 μM, infected L929 cells, 96 h, toxic = L929 death, read-out: percentage of T. cruzi growth inhibition
[14] = Trypanosoma cruzi, 5 μM, infected L929 cells, 96 h, toxic = L929 death, read-out: percentage of T. cruzi growth inhibition
[15] = Trypanosoma cruzi, 10 μM, infected L929 cells, 96 h, toxic = L929 death, read-out: percentage of T. cruzi growth inhibition
[16] = Trypanosoma cruzi, 20 μM, infected L929 cells, 96 h, toxic = L929 death, read-out: percentage of T. cruzi growth inhibition
[17] = 10 μM, infected L929 cells, 96 h, toxic = L929 death
[18] = 20 μM, infected L929 cells, 96 h, toxic = L929 death
[19] = noninfected L929 fibroblast cells
[20] = Trypanosoma cruzi, L929, 96 h, infected L929 cells, 96 h

SMILES	percentage of NTS activity, 72 h ([1]; 1 μM) [%]	percentage of NTS activity, 72 h ([1]; 10 μM) [%]	percentage of NTS activity, 72 h ([1]; 20 μM)	IC50 [1] [µM]	percentage of activity (death induction), S. mansoni adult worms (S. mansoni adult worms; 20 μM) [%]	viability at 48 h, 1 µM [2] [%]	viability at 48 h, 5 µM [2] [%]	viability at 48 h, 10 µM [2] [%]	viability at 48 h, 25 µM [2] [%]	viability at 48 h, 50 µM [2] [%]	IC50 [3] [µM]	percentage of activity (death induction), S. mansoni adult worms (S. mansoni adult worms; 10 μM) [%]	percentage of T. cruzi growth inhibition [4, 9]	percentage of T. cruzi growth inhibition [4, 10]	percentage of T. cruzi growth inhibition [4, 11]	inhibition at 1.25 µM [4, 12] [%]	inhibition at 2.5 µM [4, 13] [%]	inhibition at 5 µM [4, 14] [%]	EC50, growth of T. cruzi amastigotes and trypomastigotes ([4]; infected L929 cells, 96 h)	CC50 at 96 h (in vitro; [19]) [µM]	also measured
Cn1c(/C=C/C(=O)c2ccc(NC(=O)OC(C)(C)C)cc2)ccc1C(=O)NO [Compound 17]	28.0 ± 0.0	100.0 ± 0.0	100.0 ± 0.0%	1.23	58.6 ± 0	74.2 ± 5.2	91.8 ± 11.5	102 ± 15.2	91.9 ± 4.5	77.4 ± 2.3	> 50										
CC(C)(C)OC(=O)Nc1ccc(C(=O)/C=C/c2ccc(C(=O)NO)cc2)cc1 [Compound 18]	26.0 ± 1.0	100.0 ± 0.0	100.0 ± 0.0%	1.26	56.0 ± 7.8	67.9 ± 4.2	73.8 ± 3.3	71 ± 7.8	50.3 ± 7.4	43.1 ± 0.1	24.7	43.1 ± 2.0									
Nc1ccccc1NC(=O)c1ccc(CNC(=O)OCc2cccnc2)cc1 [Compound 9, entinostat, reference compound]		40.0 ± 2.0	42.3 ± 0.0%	> 20									toxic	toxic	toxic	0	0	0	inactive		inhibition at 10 µM [4, 15]: 0%; inhibition at 20 µM [4, 16]: 0%; inhibition at 0.8 µM [5]: 6.7 ± 3.8%; inhibition at 4 µM [5]: 2.9 ± 10.1%; inhibition at 20 µM [5]: 28.9 ± 0.9%; HCA outcome against intramacrophagic L. amazonensis amastigotes [6]: toxic; CC50 at 96 h (in vitro): 20 µM
CC(C)(C)OC(=O)Nc1cccc(C(=O)/C=C/c2ccc(C(=O)NO)cc2)c1 [Compound 19]	24.0 ± 0.0	100.0 ± 0.0	100.0 ± 0.0%	1.29	58.6 ± 0	75.6 ± 16.9	80.5 ± 13.7	82 ± 12.3	68.6 ± 1.3	52.8 ± 16.1	48.7										
CC(C)(C)OC(=O)Nc1ccc(C(=O)/C=C/c2ccc(/C=C/C(=O)NO)cc2)cc1 [Compound 20]	22.0 ± 1.0	100.0 ± 0.0	100.0 ± 0.0%	1.32	40.5 ± 2.6	80 ± 11	71.6 ± 9.2	63 ± 6	59.5 ± 2.4	45.6 ± 4.8	27.2	31.3 ± 2.0									
O=C(/C=C/c1ccc(Cc2nnc(Cc3cccc4ccccc34)o2)cc1)NO [Compound 7]		38.0 ± 1.2	39.4 ± 1.0%	> 20									toxic	toxic	toxic	0	0	21	inactive	5	percentage of T. cruzi growth inhibition [4, 17]: toxic; percentage of T. cruzi growth inhibition [4, 18]: toxic
O=C(Cn1ccnc1[N+](=O)[O-])NCc1ccccc1 [BZN, benznidazole, reference compound]																					selectivity index (SI), CC50/EC50 [4]: 625; EC50 [4, 20]: 3.8 µM
CC1=C(/C=C/C(C)=C/C=C/C(C)=C/C(=O)Nc2ccccc2N)C(C)(C)CCC1 [Compound 8]		37.9 ± 0.0	70% and 71.1 ± 1.0%	12.8	52.8 ± 2.8	95.3 ± 28.7	115 ± 9.4	90.4 ± 16.7	98.8 ± 4.6	72 ± 5.8	> 50	36.1 ± 2.8			toxic	0	0	7		80	selectivity index (SI), CC50/EC50 [4]: 5.7; EC50 [4, 20]: 13.9 µM; inhibition at 10 µM [4, 15]: 32%; inhibition at 20 µM [4, 16]: 78%; inhibition at 40 µM ([4]; Trypanosoma cruzi, 40 μM, infected L929 cells, 96 h, toxic = L929 death, read-out: percentage of T. cruzi growth inhibition): 76%; inhibition at 80 µM ([4]; Trypanosoma cruzi, 80 μM, infected L929 cells, 96 h, toxic = L929 death, read-out: percentage of T. cruzi growth inhibition): 88%; EC50 ([4]; infected L929 cells, 96 h): 14 ± 3.4 µM; inhibition at 0.8 µM ([7]; 0.8 μM): 8.1 ± 2.1%; inhibition at 4 µM ([7]; 4 μM): 8.3 ± 3.4%; inhibition at 0.8 µM ([8]; 0.8 μM): 2.3 ± 1.4%; inhibition at 20 µM ([8]; 20 μM): 6.3 ± 1.7%; inhibition at 0.8 µM [5]: 4.3 ± 1.1%; inhibition at 4 µM [5]: 5.8 ± 2.5%; inhibition at 20 µM [5]: 41.8 ± 1.4%
O=C(/C=C/c1ccc(NC(=O)Cc2cccc3ccccc23)cn1)NO [Compound 5]		31.0 ± 0.0	30.8 ± 0.0%	> 20									toxic	toxic	toxic	0			inactive	1.25	percentage of T. cruzi growth inhibition ([4]; 2.5 μM, infected L929 cells, 96 h, toxic = L929 death): toxic; percentage of T. cruzi growth inhibition ([4]; 5 μM, infected L929 cells, 96 h, toxic = L929 death): toxic; percentage of T. cruzi growth inhibition [4, 17]: toxic; percentage of T. cruzi growth inhibition [4, 18]: toxic
